{"source": "patent US12569508B2", "about": "“Antimicrobial compositions and methods of use” (priority 2020, dated 2026)", "system": "PAO1 biofilm", "experiment": "In vitro MBEC antibiofilm assay", "format": "cell-based, P. aeruginosa", "details": "5 μg/mL and 15 μg/mL TOB; 24 h", "description": "The pegs on lid of the MBEC Assay® were submerged into the bacterial suspension, with column 12 containing sterile LB broth as a negative control. The plate was incubated at 37° C. on a rotating gyrator for 24 h to form biofilm on the pegs. After 24 h, the peg lid was removed and transferred into another 96-well microtiter plate containing sterile water for 30 seconds before being transferred into a treatment plate. The peg lid in the treatment plate was incubated for 24 h at 37° C. on the rotating gyrator. In the first study, the effect of concentration variation of TOB in MO-LCNPs was determined. […] The respective controls included unloaded formulations MO-LCNP and […] at equivalent concentrations and 0.9% NaCl. […] In the second study, the difference in effect of MO- and […] compared to liposomes containing TOB was determined. […] The final concentration of MO and PHY was 0.25 mg/mL. Liposomes were prepared as described above. In the third study, TOB, AMI and GEN as unformulated solutions and loaded in MO-LCNPs were compared as treatments against PAO1 biofilms in the MBEC Assay®. The concentration of each antibiotic was 6 μg/mL. […] In all four different studies, the treatments were incubated with the PAO1 biofilm grown on the MBEC Assay® on a rotating plate at 37° C. After 24 h incubation, the peg lid was transferred to a fresh plate containing sterilized water to inhibit treatments. […]", "data": [{"smiles": "NC[C@H]1O[C@H](O[C@H]2[C@H](O)[C@@H](O[C@H]3O[C@H](CO)[C@@H](O)[C@H](N)[C@H]3O)[C@H](N)C[C@@H]2N)[C@H](N)C[C@@H]1O", "note": "[unformulated TOB, tobramycin]", "values": [{"measurement": "reduction of PAO1 load compared to the no treatment control", "value": 2, "unit": "log"}]}]}
